Reference: patent US20140186329A1, “POLYPHENOL ANALOGS TO TREAT ISCHEMIA” (priority 2011, published 2014)

Legend:
RCG-5 nerve cells = test: Chemical ischemia model (IAA) in RCG-5 nerve cells; type: cell-based; settings: 30 μM IAA 2 hr, 5-25 μM, also added 2 hrs after insult
Procedure: (§1) FIG. 5 illustrates pharmacological effects of Baicalein on cultured cells. (A) Trophic factor withdrawal. Primary cortical neurons are prepared from 18-day-old rat embryos, and cultured at low cell density 1×10^6/35 mm dish, in serum containing medium with Baicalein (10-10,000 nM), and viability assayed 2 days later using a live-dead assay. (B) Excitotoxicity assay was done with E14 mouse primary cortical neuron cultures. After 11 days of culture, cells were exposed to 10 μM glutamate for 10 min, followed by the addition of varying concentrations of Baicalein (0.2-5 μM). Cell viability was determined 24 hr later with a standard MTT assay. (C) PC12 cells were glucose-deprived then were incubates in the absence or presence of Baicalein. Cell viability was determined 24 hr later using the MTT assay. (D) RCG-5 nerve cells were treated with 30 μM iodoacetic acid for 2 hr in the presence or absence of 5-25 μM Baicalein. In some experiments, Baicalein was added 2 hr after the ischemic event. Cell survival (%) was measured after 24 hr by the MTT assay. Baicalein added before (□) or 2 hr after ([…]) ischemia. […] When these cells are starved for glucose, there is approximately 70% maximal survival in the presence of NGF. Baicalein promotes over 80% survival (FIG. 5C).

primary cortical neurons = test: Trophic factor withdrawal; type: cell-based, rat; settings: serum-containing medium, 10-10,000 nM, 2 days
Procedure: as §1, with “These include trophic factor withdrawal (TFW), excitotoxicity, glucose starvation, and most importantly, in a chemical ischemia model. […] (FIG. 5A). Using a published excitotoxicity assay, Baicalein rescues about 35% of the” for “When these”, “cells” for “cells are starved for glucose, there is approximately 70% maximal survival in the presence of NGF. Baicalein promotes over 80% survival”, “5B).” for “5C).”

O=c1cc(-c2ccccc2)oc2cc(O)c(O)c(O)c12 [Baicalein, 5,6,7-trihydroxyflavone, reference compound]
prevention of cell death in chemical ischemia model (RCG-5 nerve cells): prevents cell death
survival of low-density cultured cortical neurons (primary cortical neurons): dramatically promotes the survival
